Experimental data as given in patent US9216983B2, “Dihydroorotate dehydrogenase inhibitors with selective anti-malarial activity” (BOARD OF REGENTS, UNIVERSITY OF TEXAS SYSTEM, priority 2007, dated 2015).
Read-outs that look alike come from different tables or passages of the source.

Assays:
[1] = target: T1, PfDHODH (Plasmodium falciparum, UniProt Q08210); assay: biochemical
T1 sequence (Q08210 24-569): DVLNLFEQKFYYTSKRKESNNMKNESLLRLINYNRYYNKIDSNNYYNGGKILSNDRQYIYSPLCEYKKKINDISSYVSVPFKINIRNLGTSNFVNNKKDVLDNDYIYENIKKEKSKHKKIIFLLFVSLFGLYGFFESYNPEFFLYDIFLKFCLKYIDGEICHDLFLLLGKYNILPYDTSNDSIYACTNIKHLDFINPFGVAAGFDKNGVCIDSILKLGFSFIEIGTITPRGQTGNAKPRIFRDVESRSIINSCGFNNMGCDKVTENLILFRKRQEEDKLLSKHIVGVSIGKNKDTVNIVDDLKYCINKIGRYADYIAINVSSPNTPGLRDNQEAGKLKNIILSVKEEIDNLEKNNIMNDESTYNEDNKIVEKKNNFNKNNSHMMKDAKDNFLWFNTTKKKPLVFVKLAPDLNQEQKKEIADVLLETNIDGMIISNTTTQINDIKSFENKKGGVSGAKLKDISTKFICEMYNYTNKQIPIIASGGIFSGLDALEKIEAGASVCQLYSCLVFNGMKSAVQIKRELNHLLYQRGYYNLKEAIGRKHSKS
Procedure: (§1) Briefly, the assay solution contained 100 mM HEPES, pH 8.0, 150 mM NaCl, 10% glycerol, 0.1% Triton X-100, 20 micro molar COQD (coenzyme QD), 200 micro molar L-dihydroorotate, and 120 micro molar DCIP. Reactions are initiated by addition of enzyme to a final concentration in the range of about […] to about 50 nM while maintaining the temperature of a circulating water bath at 25° C.
(§2) Assay solutions were prepared as discussed above, except that DCIP is not present and the solution is depleted of oxygen by the inclusion of an oxidase/reductase system, such as, 0.1 mg/ml of glucose oxidase, 0.02 mg/ml catalase and 50 mM glucose. The data obtained is fitted to equation 1, to determine the IC50 values of the representative compounds.

[2] = target: PbDHODH (Plasmodium berghei, UniProt A0A509AEH5); assay: DHODH enzyme inhibition assay, PbDHODH; assay type: biochemical, P. berghei; details: Table 4, IC50 class
Procedure: as §1, §2

[3] = target: hDHODH (Homo sapiens, UniProt Q02127); assay: DHODH enzyme inhibition assay, hDHODH; assay type: biochemical; details: Table 4, IC50 class; read-out: hDHODH
Procedure: as §1, §2

[4] = test system: P. falciparum; assay: Inhibition of cell proliferation, 3H-hypoxanthine uptake in P. falciparum-infected erythrocytes; assay type: cell-based; details: Plasmodium falciparum, 3D7, Erythrocyte, Table 5, 3D7 cells; read-out: EC50 P. falciparum 3D7 cells
Excerpt: [formula] II. In Vitro Evaluation of Compound Efficacy on the Human Malaria Parasite, P. falciparum.

[5] = Table 5, read-out: PfDHODH IC50
[6] = Table 4, IC50 class, read-out: PfDHODH

PbDHODH, sequence (A0A509AEH5 entry or part of it): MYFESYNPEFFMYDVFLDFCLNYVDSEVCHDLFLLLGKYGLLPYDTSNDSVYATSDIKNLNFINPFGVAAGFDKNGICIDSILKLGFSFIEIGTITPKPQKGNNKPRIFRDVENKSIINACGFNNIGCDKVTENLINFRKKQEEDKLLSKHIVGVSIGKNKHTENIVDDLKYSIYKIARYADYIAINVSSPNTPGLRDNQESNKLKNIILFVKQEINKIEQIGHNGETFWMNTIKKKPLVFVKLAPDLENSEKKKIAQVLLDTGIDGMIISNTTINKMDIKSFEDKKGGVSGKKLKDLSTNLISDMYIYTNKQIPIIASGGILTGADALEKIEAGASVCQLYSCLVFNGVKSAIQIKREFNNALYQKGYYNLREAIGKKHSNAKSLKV
hDHODH, sequence (Q02127 whole entry): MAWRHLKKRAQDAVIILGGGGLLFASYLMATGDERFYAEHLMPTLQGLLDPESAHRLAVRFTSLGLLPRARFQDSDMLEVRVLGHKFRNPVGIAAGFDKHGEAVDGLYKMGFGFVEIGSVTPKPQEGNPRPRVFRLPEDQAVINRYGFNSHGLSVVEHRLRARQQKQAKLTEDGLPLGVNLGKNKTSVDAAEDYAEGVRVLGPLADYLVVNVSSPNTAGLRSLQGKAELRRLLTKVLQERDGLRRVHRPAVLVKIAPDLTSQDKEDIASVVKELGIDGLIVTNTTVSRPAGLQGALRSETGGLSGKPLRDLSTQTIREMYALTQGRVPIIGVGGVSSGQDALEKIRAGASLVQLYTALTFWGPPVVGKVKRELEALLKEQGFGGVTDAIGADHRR

## CCCc1nc2nc(C)cc(Nc3ccc(C)c(F)c3)n2n1
[1]; [5]
  IC50: 0.277 µM

## Cc1cc(Nc2c(F)c(F)c(F)c(F)c2F)n2ncnc2n1
[2]; PbDHODH
  IC50: > 10 µM
[1]; [6]
  IC50: > 10 µM

## Cc1cc(Nc2cccc(Cl)c2)n2ncnc2n1 [drawing 116]
[1]; PfDHODH IC50, Table 5
  IC50: 0.566 µM

## Cc1cc(Nc2ccc(C)c(C(F)(F)F)c2)n2ncnc2n1
[2]; read-out: PbDHODH
  IC50: 2 to 10 µM
[3]
  IC50: > 10 µM
[1]; [6]
  IC50: < 2 µM

## Cc1ccc(Nc2cc(C)nc3ncnn23)cc1
[2]; PbDHODH
  IC50: > 10 µM
[1]; [6]
  IC50: 2 to 10 µM

## CCc1ccc(Nc2cc(C)nc3ncnn23)cc1
[2]; PbDHODH
  IC50: 2 to 10 µM
[3]
  IC50: > 10 µM
[1]; [6]
  IC50: < 2 µM

## Cc1cc(Nc2ccc(OCc3ccccc3)cc2)n2ncnc2n1
[1]; [5]
  IC50: 6.3 ± 0.95 µM

## Cc1cc(Nc2ccc(C(F)(F)F)c(F)c2)n2ncnc2n1
[2]; read-out: PbDHODH
  IC50: < 2 µM
[3]
  IC50: > 10 µM
[1]; [6]
  IC50: < 2 µM

## Cc1cc(Nc2ccc3c(c2)CCCC3)n2ncnc2n1
[1]; [5]
  IC50: 0.05 ± 0.008 µM

## CCCCCCCCc1ccc(Nc2cc(C)nc3ncnn23)cc1
[2]; PbDHODH
  IC50: > 10 µM
[1]; [6]
  IC50: > 10 µM

## CCCCCCc1ccc(Nc2cc(C)nc3ncnn23)cc1
[2]; PbDHODH
  IC50: > 10 µM
[1]; [6]
  IC50: 2 to 10 µM

## Cc1cc(Nc2cc(F)ccc2F)n2ncnc2n1
[2]; PbDHODH
  IC50: > 10 µM
[1]; [6]
  IC50: > 10 µM

## Cc1cc(Nc2cccc(F)c2)n2ncnc2n1
[2]; read-out: PbDHODH
  IC50: > 10 µM
[3]
  IC50: > 10 µM
[1]; [6]
  IC50: 2 to 10 µM

## Cc1cc(Nc2cccc(C(F)(F)F)c2)n2ncnc2n1
[2]; read-out: PbDHODH
  IC50: > 10 µM
[3]
  IC50: > 10 µM
[1]; [6]
  IC50: > 10 µM

## COc1ccc(Nc2cc(C)nc3ncnn23)cc1Cl
[1]; [5]
  IC50: 0.362 µM

## CCCc1ccc(Nc2cc(C)nc3ncnn23)cc1
[2]; PbDHODH
  IC50: 2 to 10 µM
[3]
  IC50: > 10 µM
[1]; [6]
  IC50: < 2 µM

## CCCCCc1ccc(Nc2cc(C)nc3ncnn23)cc1
[2]; PbDHODH
  IC50: > 10 µM
[1]; [6]
  IC50: < 2 µM

## Cc1cc(Nc2ccc(F)c(F)c2F)n2ncnc2n1
[2]; read-out: PbDHODH
  IC50: > 10 µM
[3]
  IC50: > 10 µM
[1]; [6]
  IC50: > 10 µM

## Cc1cc(Nc2ccccc2C)n2ncnc2n1
[2]; PbDHODH
  IC50: > 10 µM
[1]; [6]
  IC50: > 10 µM

## COc1ccc(Nc2cc(C)nc3nc(C)nn23)cc1Cl [drawing 99]
[1]; [5]
  IC50: 0.326 µM

## Cc1cc(Nc2ccc(C#N)cc2)n2ncnc2n1
[1]; [6]
  IC50: 2 to 10 µM

## Cc1cc(Nc2ccc(C(F)(F)F)cc2)n2ncnc2n1 [drawing 93]
[4]
  EC50: 0.33 ± 0.02 µM

## Cc1cc(Nc2ccc(F)cc2)n2ncnc2n1
[2]; PbDHODH
  IC50: > 10 µM
[1]; [6]
  IC50: > 10 µM

## Cc1cc(Nc2ccc(Cl)c(C(F)(F)F)c2)n2ncnc2n1
[2]; read-out: PbDHODH
  IC50: < 2 µM
[1]; [6]
  IC50: < 2 µM

## CCc1cccc(Nc2cc(C)nc3ncnn23)c1
[1]; [5]
  IC50: 0.641 µM

## CCc1nc2nc(C)cc(Nc3ccc(OC)cc3)n2n1
[1]; [5]
  IC50: 2.25 µM

## Cc1cc(Nc2ccc(N(C)C)cc2)n2ncnc2n1
[2]; PbDHODH
  IC50: > 10 µM
[1]; [6]
  IC50: < 2 µM

## Cc1cc(Nc2ccc3c(c2)OCO3)n2ncnc2n1
[2]; PbDHODH
  IC50: > 10 µM
[3]
  IC50: > 10 µM
[1]; [6]
  IC50: < 2 µM

## Cc1cc(Nc2ccc(OC(F)F)cc2)n2ncnc2n1 [drawing 44]
[2]; PbDHODH
  IC50: > 10 µM
[1]; [6]
  IC50: < 2 µM

## C=Cc1ccc(Nc2cc(C)nc3ncnn23)cc1
[2]; PbDHODH
  IC50: 2 to 10 µM

## C#Cc1ccc(Nc2cc(C)nc3ncnn23)cc1
[1]; [5]
  IC50: 0.99 ± 0.18 µM

## CCCCc1ccc(Nc2cc(C)nc3ncnn23)cc1
[2]; PbDHODH
  IC50: 2 to 10 µM
[3]
  IC50: > 10 µM
[1]; [6]
  IC50: < 2 µM

## Cc1cc(Nc2ccc(S(F)(F)(F)(F)F)cc2)n2ncnc2n1
[1]; [5]
  IC50: 0.117 ± 0.01 µM

## Cc1cc(Nc2c(F)cc(F)cc2F)n2ncnc2n1
[2]; read-out: PbDHODH
  IC50: > 10 µM
[3]
  IC50: > 10 µM
[1]; [6]
  IC50: > 10 µM

## COc1ccc(Nc2cc(C)nc3ncnn23)cc1
[2]; read-out: PbDHODH
  IC50: < 2 µM
[3]
  IC50: > 10 µM
[1]; [6]
  IC50: < 2 µM

## Cc1cc(Nc2ccc(C#N)c(C(F)(F)F)c2)n2ncnc2n1
[2]; PbDHODH
  IC50: > 10 µM
[3]
  IC50: 2 to 10 µM
[1]; PfDHODH, Table 4, IC50 class
  IC50: 2 to 10 µM

## Cc1cc(Nc2ccccc2Cl)n2ncnc2n1
[2]; PbDHODH
  IC50: > 10 µM
[1]; [6]
  IC50: > 10 µM

## CCc1nc2nc(C)cc(Nc3cccc(C(F)(F)F)c3)n2n1
[1]; [5]
  IC50: 1.17 µM

## CCCCCCCc1ccc(Nc2cc(C)nc3ncnn23)cc1
[2]; PbDHODH
  IC50: > 10 µM
[1]; [6]
  IC50: > 10 µM

## CCc1nc2nc(C)cc(Nc3ccc(I)cc3)n2n1
[1]; [5]
  IC50: 0.0379 µM

## Cc1cc(Nc2cccc(Cl)c2)n2ncnc2n1 [drawing 35]
[1]; PfDHODH, Table 4, IC50 class
  IC50: < 2 µM

## Cc1cc(Nc2ccc3[nH]c(C(F)(F)F)nc3c2)n2ncnc2n1
[2]; read-out: PbDHODH
  IC50: > 10 µM
[3]
  IC50: > 10 µM
[1]; [6]
  IC50: > 10 µM
